Data as given in US20160296628A1, “NANOPARTICLE DELIVERY SYSTEMS FOR CYTOLYTIC PEPTIDE PRODRUGS” (Washington University, priority 2015, published 2016).

Columns and labels:
[1] = test system: RAW 264.7 macrophages; experiment: XTT cytotoxicity assay, RAW 264.7 macrophages; format: cell-based; conditions: 3 hours at 37° C., FIGS. 1A-1C
Description: (§1) The conjugate was compared to melittin and to melittin coupled only to linker in order to determine toxicity to endothelial cells and macrophages, as well as hemolysis. For assessment of cytotoxicity, 2F2B endothelial cells (CRL-2168; American Type Culture Collection, Manassas, Va.) or RAW 264.7 macrophages (TIB-71; American Type Culture Collection, Manassas, Va.) were plated in a 96-well plate at a concentration of 15,000 cells/well and allowed to attach overnight. The peptide of interest was then added and incubated with the cells for 3 hours at 37° C. Following this incubation, the agent of interest was removed, cells were washed with phosphate-buffered saline, and cell viability was determined by XTT assay (Biotium, Hayward, Calif.). This assay measures the ability of cellular oxidoreductases to reduce the XTT reagent, resulting in a colored product. Briefly, cells were incubated with the activated XTT reagent for 3 hours at 37° C. with shaking at 200 rpm. The absorbance of each well at 450 nm was then measured using a Bio-Rad Model 550 plate reader (Bio-Rad Laboratories, Hercules, Calif.) with reference wavelength 630 nm.
(§2) To assess the impact of proteolytic cleavage on conjugate cytotoxicity and hemolytic activity, we repeated these experiments following cleavage of the conjugate by matrix metalloproteinase-9 (MMP-9). […]

[2] = test system: red blood cells; experiment: Hemolysis of red blood cells; format: cell-based, New Zealand white rabbits
Description: For hemolysis measurements, citrated whole blood was collected from New Zealand white rabbits and separated by centrifugation at 2000 rpm for 10 minutes. Red blood cells were washed five times with Dulbecco's phosphate buffered saline and stored at 4° C. until use. In each assay, the peptide of interest was added to 1×10^7 red blood cells in PBS and incubated at 37° C. for one hour. Afterwards, intact red blood cells were pelleted by centrifugation at 2000 rpm for 5 minutes and absorbance of the supernatant at 450 nm was measured using a Bio-Rad Model 550 plate reader (Bio-Rad Laboratories, Hercules, Calif.) with reference wavelength 630 nm To determine percent lysis, absorbance readings were normalized to lysis with 0.1% Triton™ X-100.
To assess the impact of proteolytic cleavage on conjugate cytotoxicity and hemolytic activity, we repeated these experiments following cleavage of the conjugate by matrix metalloproteinase-9 (MMP-9). Recombinant MMP-9 (R&D Systems, Minneapolis, Minn.) was activated by incubation with 1 mM 4-aminophenylmercuric acetate (APMA; Sigma-Aldrich, St. Louis, Mo.) at 37° C. for 2 hours. Free APMA was removed by dialysis against TCNBZ buffer (150 mM NaCl, 50 mM Tris, 10 mM CaCl2, 10 μM ZnCl2, 0.05% (w/v) Brij-35, pH 7.75) for 2 hours using a Slide-A-Lyzer MINI Dialysis Device, 2K MWCO (Thermo Scientific, Waltham, Mass.) with a dialysate change at 1 hour. […]

[3] = test system: 2F2B endothelial cells; experiment: XTT cytotoxicity assay, 2F2B endothelial cells; format: cell-based; conditions: 3 hours at 37° C., FIGS. 1A-1C
Description: as §1, §2

[4] = test system: B16F10 melanoma cells; experiment: XTT cytotoxicity assay, B16F10 melanoma cells; format: cell-based; conditions: B16F10, MMP-9 added to culture media
[5] = Peptide loading onto perfluorocarbon nanoparticles; format: physicochemical; conditions: 1 mM peptide in phosphate-buffered saline, 4° C., 1 hour
Description: Conjugate-loaded nanoparticles were formulated by mixing known amounts of conjugate to non-targeted perfluorocarbon nanoparticles prepared in Example 1A and compared to melittin loading. Both melittin and the conjugate were produced by solid-phase peptide synthesis (melittin: GenScript, Piscataway, N.J.; conjugate: American Peptide Company, Sunnyvale, Calif.). Perfluorocarbon nanoparticles were incubated with 1 mM melittin or conjugate in phosphate-buffered saline at 4° C. for 1 hour. Nanoparticles were then isolated by centrifugation at 5,000 rpm for 15 minutes. The supernatant was removed and nanoparticles were washed three times with phosphate-buffered saline to remove free peptide.

SMILES: CC[C@H](C)[C@H](NC(=O)CNC(=O)[C@H](CCC(N)=O)NC(=O)CNC(=O)[C@H](C)NC(=O)[C@@H](NC(=O)CNC(=O)[C@H](CCC(N)=O)NC(=O)[C@@H]1CCCN1C(=O)CNC(=O)[C@H](C)NC(=O)[C@H](CCC(=O)O)NC(=O)[C@@H]1CCCN1C(=O)[C@H](CC(=O)O)NC(=O)[C@H](C)NC(=O)[C@H](CCC(=O)O)NC(=O)[C@H](C)NC(=O)[C@H](CC(=O)O)NC(=O)[C@H](C)NC(=O)[C@H](CCC(=O)O)NC(=O)[C@H](C)NC(=O)[C@H](CCC(=O)O)NC(=O)[C@@H]1CCCN1C(=O)[C@H](CCC(=O)O)NC(=O)[C@@H]1CCCN1C(=O)[C@H](C)NC(=O)[C@@H]1CCCN1C(=O)[C@H](CCC(=O)O)NC(=O)[C@@H]1CCCN1)[C@@H](C)CC)C(=O)NCC(=O)N[C@@H](C)C(=O)N[C@H](C(=O)N[C@@H](CC(C)C)C(=O)N[C@@H](CCCCN)C(=O)N[C@H](C(=O)N[C@@H](CC(C)C)C(=O)N[C@H](C(=O)N[C@H](C(=O)NCC(=O)N[C@@H](CC(C)C)C(=O)N1CCC[C@H]1C(=O)N[C@@H](C)C(=O)N[C@@H](CC(C)C)C(=O)N[C@H](C(=O)N[C@@H](CO)C(=O)N[C@@H](Cc1c[nH]c2ccccc12)C(=O)N[C@H](C(=O)N[C@@H](CCCCN)C(=O)N[C@@H](CCCNC(=N)N)C(=O)N[C@@H](CCCCN)C(=O)N[C@@H](CCCNC(=N)N)C(=O)N[C@@H](CCC(N)=O)C(=O)N[C@@H](CCC(N)=O)C(N)=O)[C@@H](C)CC)[C@@H](C)CC)[C@@H](C)O)[C@@H](C)O)C(C)C)C(C)C [Pro-P2]
- change of cytolytic activity / cytotoxicity relative to melittin [1]: reduced melittin cytotoxicity and hemolytic activity by at least two orders of magnitude
- hemolytic activity after cleavage by MMP-9 ([2]; conjugate 200 μM cleaved with 20 nM MMP-9, 3 hours at 37° C.): restored
- change of cytolytic / hemolytic activity relative to melittin ([2]; rabbit red blood cells in PBS, 37° C., one hour, FIGS. 1A-1C): reduced melittin cytotoxicity and hemolytic activity by at least two orders of magnitude
- change of cytolytic activity / cytotoxicity relative to melittin [3]: reduced melittin cytotoxicity and hemolytic activity by at least two orders of magnitude
- cytotoxicity to melanoma cells [4]: substantially cytotoxic

SMILES: CC[C@H](C)[C@H](NC(=O)CN)C(=O)NCC(=O)N[C@@H](C)C(=O)N[C@H](C(=O)N[C@@H](CC(C)C)C(=O)N[C@@H](CCCCN)C(=O)N[C@H](C(=O)N[C@@H](CC(C)C)C(=O)N[C@H](C(=O)N[C@H](C(=O)NCC(=O)N[C@@H](CC(C)C)C(=O)N1CCC[C@H]1C(=O)N[C@@H](C)C(=O)N[C@@H](CC(C)C)C(=O)N[C@H](C(=O)N[C@@H](CO)C(=O)N[C@@H](Cc1c[nH]c2ccccc12)C(=O)N[C@H](C(=O)N[C@@H](CCCCN)C(=O)N[C@@H](CCCNC(=N)N)C(=O)N[C@@H](CCCCN)C(=O)N[C@@H](CCCNC(=N)N)C(=O)N[C@@H](CCC(N)=O)C(=O)N[C@@H](CCC(N)=O)C(N)=O)[C@@H](C)CC)[C@@H](C)CC)[C@@H](C)O)[C@@H](C)O)C(C)C)C(C)C [melittin]
- loading, peptides per nanoparticle [5]: approximately 16,000 peptides per nanoparticle
